The source of these data is ChEMBL document CHEMBL3044749, “Synthesis, characterization, in vitro hydrolysis and pharmacodynamic profiles of potential novel mutual prodrugs of N-(2,3-xylyl anthranilic acid)” (Med Chem Res, 2013).

A short description of data set [1]: Half life in simulated intestinal fluid at 37 degC at pH 7.4 by UV spectrophotometer analysis. The class given is ADME.
The subject of data set [2] is Rattus norvegicus. Put plainly: Anti-inflammatory activity in Wistar albino Rattus norvegicus (rat) assessed as inhibition of carrageenan-induced paw edema at 27.65 mg/kg, po administered 1 hr prior to carrageenan injection measured after 8 hr by mercury plethysmometer (reference value: 0%). It is filed as functional. Background: The carrageenan paw model is a standard test of acute inflammation.

Data set [3] in a line: Half life in simulated gastrointestinal fluid at 37 degC at pH 1.2 by UV spectrophotometer analysis. The class given is ADME.
Data set [4] relates to Rattus norvegicus. Put plainly: Anti-inflammatory activity in Wistar albino Rattus norvegicus (rat) assessed as inhibition of carrageenan-induced paw edema at 27.65 mg/kg, po administered 1 hr prior to carrageenan injection measured after 2 hr by mercury plethysmometer (reference value: 0%). The class given is functional.
Data set [5] has as its system Mus musculus. Description: Analgesic activity in Swiss Mus musculus (mouse) assessed as inhibition of acetic acid-induced abdominal writhing at 27.65 mg/kg, po administered 1 hr prior to acetic acid injection measured for 10 min. To be noted: Abdomen. It is filed as functional. Background: Writhing tests count abdominal constrictions after an irritant is injected.
Data set [6] relates to Rattus norvegicus. Description: Anti-inflammatory activity in Wistar albino Rattus norvegicus (rat) assessed as inhibition of carrageenan-induced paw edema at 27.65 mg/kg, po administered 1 hr prior to carrageenan injection measured after 1 hr by mercury plethysmometer (reference value: 0%). The class given is functional.
Data set [7] concerns Rattus norvegicus. Description: Anti-inflammatory activity in Wistar albino Rattus norvegicus (rat) assessed as inhibition of carrageenan-induced paw edema at 27.65 mg/kg, po administered 1 hr prior to carrageenan injection measured after 4 hr by mercury plethysmometer (reference value: 0%). It is filed as functional.
Data set [8] in a line: Stability of the compound assessed as prodrug hydrolysis in non-enzymatic simulated gastric fluid at 37 degC at pH 1.2 measured for 2 hr by UV spectrophotometer analysis. It is filed as physicochemical. The note with it: simulated gi fluid, pH 1.2, 2 h.
Data set [9] concerns Rattus norvegicus. Put plainly: Gastrointestinal toxicity in Wistar albino Rattus norvegicus (rat) assessed as ulcerogenicity index at 27.65 mg/kg, po administered for 7 days measured on day 8 (reference value: 0 no unit). The class given is organism-based. Set-up: dose 27.65 mg/kg, route oral. To be noted: in vivo, 168 h.
Data set [10] relates to Rattus norvegicus. Description: Anti-inflammatory activity in Wistar albino Rattus norvegicus (rat) assessed as inhibition of carrageenan-induced paw edema at 27.65 mg/kg, po administered 1 hr prior to carrageenan injection measured after 6 hr by mercury plethysmometer (reference value: 0%). It is filed as functional.
Data set [11] deals with Rattus norvegicus. Description: Anti-inflammatory activity in Wistar albino Rattus norvegicus (rat) assessed as inhibition of carrageenan-induced paw edema at 27.65 mg/kg, po administered 1 hr prior to carrageenan injection measured after 3 hr by mercury plethysmometer (reference value: 0%). The class given is functional.
The test system of data set [12] is Rattus norvegicus. Description: Anti-inflammatory activity in Wistar albino Rattus norvegicus (rat) assessed as inhibition of carrageenan-induced paw edema at 24.65 mg/kg, po administered 1 hr prior to carrageenan injection measured after 1 hr by mercury plethysmometer (reference value: 0%). It is filed as functional.
For data set [13], the system named is Mus musculus. Description: Analgesic activity in Swiss Mus musculus (mouse) assessed as inhibition of acetic acid-induced abdominal writhing at 24.65 mg/kg, po administered 1 hr prior to acetic acid injection measured for 10 min. It is filed as functional. The note with it: Abdomen.
Data set [14] deals with Rattus norvegicus. Put plainly: Anti-inflammatory activity in Wistar albino Rattus norvegicus (rat) assessed as inhibition of carrageenan-induced paw edema at 24.65 mg/kg, po administered 1 hr prior to carrageenan injection measured after 4 hr by mercury plethysmometer (reference value: 0%). The class given is functional.
Data set [15] relates to Rattus norvegicus. Description: Anti-inflammatory activity in Wistar albino Rattus norvegicus (rat) assessed as inhibition of carrageenan-induced paw edema at 24.65 mg/kg, po administered 1 hr prior to carrageenan injection measured after 2 hr by mercury plethysmometer (reference value: 0%). The class given is functional.
For data set [16], the system named is Rattus norvegicus. Put plainly: Anti-inflammatory activity in Wistar albino Rattus norvegicus (rat) assessed as inhibition of carrageenan-induced paw edema at 24.65 mg/kg, po administered 1 hr prior to carrageenan injection measured after 6 hr by mercury plethysmometer (reference value: 0%). It is filed as functional.
In data set [17] the test system is Rattus norvegicus. Put plainly: Gastrointestinal toxicity in Wistar albino Rattus norvegicus (rat) assessed as ulcerogenicity index at 24.65 mg/kg, po administered for 7 days measured on day 8 (reference value: 0 no unit). The class given is organism-based. Details: dose 24.65 mg/kg, route oral. To be noted: in vivo, 168 h.
Data set [18] has as its system Rattus norvegicus. Description: Anti-inflammatory activity in Wistar albino Rattus norvegicus (rat) assessed as inhibition of carrageenan-induced paw edema at 24.65 mg/kg, po administered 1 hr prior to carrageenan injection measured after 8 hr by mercury plethysmometer (reference value: 0%). The class given is functional.
The test system of data set [19] is Rattus norvegicus. Put plainly: Anti-inflammatory activity in Wistar albino Rattus norvegicus (rat) assessed as inhibition of carrageenan-induced paw edema at 24.65 mg/kg, po administered 1 hr prior to carrageenan injection measured after 3 hr by mercury plethysmometer (reference value: 0%). It is filed as functional.
The subject of data set [20] is Mus musculus. Description: Analgesic activity in Swiss Mus musculus (mouse) assessed as inhibition of acetic acid-induced abdominal writhing at 23 mg/kg, po administered 1 hr prior to acetic acid injection measured for 10 min. It is filed as functional. To be noted: Abdomen.
The test system of data set [21] is Rattus norvegicus. Put plainly: Anti-inflammatory activity in Wistar albino Rattus norvegicus (rat) assessed as inhibition of carrageenan-induced paw edema at 23 mg/kg, po administered 1 hr prior to carrageenan injection measured after 3 hr by mercury plethysmometer (reference value: 0%). It is filed as functional.
For data set [22], the system named is Rattus norvegicus. Description: Anti-inflammatory activity in Wistar albino Rattus norvegicus (rat) assessed as inhibition of carrageenan-induced paw edema at 23 mg/kg, po administered 1 hr prior to carrageenan injection measured after 4 hr by mercury plethysmometer (reference value: 0%). It is filed as functional.
In data set [23] the test system is Rattus norvegicus. Put plainly: Anti-inflammatory activity in Wistar albino Rattus norvegicus (rat) assessed as inhibition of carrageenan-induced paw edema at 23 mg/kg, po administered 1 hr prior to carrageenan injection measured after 1 hr by mercury plethysmometer (reference value: 0%). The class given is functional.
Data set [24] has as its system Rattus norvegicus. Description: Anti-inflammatory activity in Wistar albino Rattus norvegicus (rat) assessed as inhibition of carrageenan-induced paw edema at 23 mg/kg, po administered 1 hr prior to carrageenan injection measured after 6 hr by mercury plethysmometer (reference value: 0%). It is filed as functional.
For data set [25], the system named is Rattus norvegicus. Description: Anti-inflammatory activity in Wistar albino Rattus norvegicus (rat) assessed as inhibition of carrageenan-induced paw edema at 23 mg/kg, po administered 1 hr prior to carrageenan injection measured after 2 hr by mercury plethysmometer (reference value: 0%). The class given is functional.
The test system of data set [26] is Rattus norvegicus. Put plainly: Anti-inflammatory activity in Wistar albino Rattus norvegicus (rat) assessed as inhibition of carrageenan-induced paw edema at 23 mg/kg, po administered 1 hr prior to carrageenan injection measured after 8 hr by mercury plethysmometer (reference value: 0%). It is filed as functional.
Data set [27] concerns Rattus norvegicus. Put plainly: Gastrointestinal toxicity in Wistar albino Rattus norvegicus (rat) assessed as ulcerogenicity index at 23 mg/kg, po administered for 7 days measured on day 8 (reference value: 0 no unit). It is filed as organism-based. Details: dose 23 mg/kg, route oral. The note with it: in vivo, 168 h.
The subject of data set [28] is Rattus norvegicus. Description: Anti-inflammatory activity in Wistar albino Rattus norvegicus (rat) assessed as inhibition of carrageenan-induced paw edema at 13 mg/kg, po administered 1 hr prior to carrageenan injection measured after 1 hr by mercury plethysmometer (reference value: 0%). The class given is functional.
For data set [29], the system named is Mus musculus. Description: Analgesic activity in Swiss Mus musculus (mouse) assessed as inhibition of acetic acid-induced abdominal writhing at 13 mg/kg, po administered 1 hr prior to acetic acid injection measured for 10 min. The class given is functional. The note with it: Abdomen.
Data set [30] concerns Rattus norvegicus. Description: Gastrointestinal toxicity in Wistar albino Rattus norvegicus (rat) assessed as ulcerogenicity index at 13 mg/kg, po administered for 7 days measured on day 8 (reference value: 0 no unit). Details: dose 13 mg/kg, route oral. The note with it: in vivo, 168 h. The class given is organism-based.
The subject of data set [31] is Rattus norvegicus. Description: Anti-inflammatory activity in Wistar albino Rattus norvegicus (rat) assessed as inhibition of carrageenan-induced paw edema at 13 mg/kg, po administered 1 hr prior to carrageenan injection measured after 8 hr by mercury plethysmometer (reference value: 0%). The class given is functional.
Data set [32] has as its system Rattus norvegicus. Description: Anti-inflammatory activity in Wistar albino Rattus norvegicus (rat) assessed as inhibition of carrageenan-induced paw edema at 13 mg/kg, po administered 1 hr prior to carrageenan injection measured after 6 hr by mercury plethysmometer (reference value: 0%). It is filed as functional.
Data set [33] deals with Rattus norvegicus. Description: Anti-inflammatory activity in Wistar albino Rattus norvegicus (rat) assessed as inhibition of carrageenan-induced paw edema at 13 mg/kg, po administered 1 hr prior to carrageenan injection measured after 2 hr by mercury plethysmometer (reference value: 0%). It is filed as functional.
Data set [34] concerns Rattus norvegicus. Description: Anti-inflammatory activity in Wistar albino Rattus norvegicus (rat) assessed as inhibition of carrageenan-induced paw edema at 13 mg/kg, po administered 1 hr prior to carrageenan injection measured after 4 hr by mercury plethysmometer (reference value: 0%). The class given is functional.
The subject of data set [35] is Rattus norvegicus. Put plainly: Anti-inflammatory activity in Wistar albino Rattus norvegicus (rat) assessed as inhibition of carrageenan-induced paw edema at 13 mg/kg, po administered 1 hr prior to carrageenan injection measured after 3 hr by mercury plethysmometer (reference value: 0%). It is filed as functional.

The half-life is the time needed for the level to fall by half in the phase considered. Read a low half-life as rapid decline. As a reminder, the inhibition in vivo is the change of the read-out against control, counted positive when it falls. As for `Cc1cccc(Nc2ccccc2C(=O)NCC(=O)OCc2c(C(C)C)c(=O)n(-c3ccccc3)n2C)c1C`, the half-life was 8.98 h in data set [1] and 18.7 h in data set [3]. Moreover, the inhibition in vivo at 27.65 mg/kg with Rattus norvegicus [2] stood at 10%; in the data set on Rattus norvegicus [4] it was 77.2%; in the data set on Mus musculus [5], 63.9%; in the data set on Rattus norvegicus [6], 23.3%; with Rattus norvegicus [7], 83.7%; with Rattus norvegicus [10], 38.5%. Further, in the data set with Rattus norvegicus [11], the inhibition in vivo at 27.65 mg/kg amounted to 85.7%. The Stability result in [8] is “Stable”. Moreover, the UI in the data set on Rattus norvegicus [9] is on record as 1.
Turning to `Cc1cccc(Nc2ccccc2C(=O)OCc2c(C(C)C)c(=O)n(-c3ccccc3)n2C)c1C`, the half-life was 7.37 h in [1] and 16.2 h in data set [3]. Also, the inhibition in vivo at 24.65 mg/kg worked out at 13.3% in the data set with Rattus norvegicus [12]; 81.7% in the data set on Mus musculus [13]; 72.6% in the data set on Rattus norvegicus [14]; 59.1% in the data set with Rattus norvegicus [15]; 62.9% with Rattus norvegicus [16]; 44% in the data set on Rattus norvegicus [18]. Further, the inhibition in vivo at 24.65 mg/kg in the data set on Rattus norvegicus [19] is 71.4%. Besides, the UI in the data set on Rattus norvegicus [17] was determined as 0.25. In addition, in [8], the Stability result was “Stable”.
In the case of `CC(C)c1c(CO)n(C)n(-c2ccccc2)c1=O` [3-HYDROXYMETHYL PROPYPHENAZONE], the inhibition in vivo at 23 mg/kg with Mus musculus [20] was determined as 78.3%; with Rattus norvegicus [21] it was 40.2%; with Rattus norvegicus [22], 31.2%; in the data set on Rattus norvegicus [23] it was 31.5%; in the data set with Rattus norvegicus [24] it was 23.7%; in the data set with Rattus norvegicus [25], 46.4%. Also, in the data set on Rattus norvegicus [26], the inhibition in vivo at 23 mg/kg stood at 12%. In the data set on Rattus norvegicus [27], the UI is given as 1.25.
With `Cc1cccc(Nc2ccccc2C(=O)O)c1C` [MEFENAMIC ACID], the inhibition in vivo at 13 mg/kg in the data set on Rattus norvegicus [28] turned out to be 38.4%; in the data set with Mus musculus [29] it was 61.1%; with Rattus norvegicus [31] it was 20%; in the data set with Rattus norvegicus [32], 24.3%; in the data set on Rattus norvegicus [33], 52.2%; in the data set on Rattus norvegicus [34], 35.6%. Besides, in the data set on Rattus norvegicus [35], the inhibition in vivo at 13 mg/kg turned out to be 53.1%. Further, the UI in the data set on Rattus norvegicus [30] was 3.17.
